In the supplement of paper PMC10307832:

Columns and labels:
Assay in all cases: relative viability (nuclei count vs DMSO), 5 days (fraction); higher = more cells survive
NCI-H2085 = system: NCI-H2085
Outline: (§1)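 Five library-drug doses in √10 steps were combined with a fixed anchor-drug dose, or a single drug was given alone, by pin tool to lung cancer cell lines in 1536-well plates the day after seeding. Nuclei were stained and counted after 5 days. Relative viability is the nuclei count in treated wells over that in vehicle wells, taken as the median of duplicate plates.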

NCI-H2023 = system: NCI-H2023
Outline: as §1

NCI-H3122 = system: NCI-H3122
Outline: as §1

NCI-H520 = system: NCI-H520
Outline: as §1

EPLC-272H = system: EPLC-272H
Outline: as §1

NCI-H1650 = system: NCI-H1650
Outline: as §1

COR-L23 = system: COR-L23
Outline: as §1

HCC-44 = system: HCC-44
Outline: as §1

NCI-H2170 = system: NCI-H2170
Outline: as §1

EKVX = system: EKVX
Outline: as §1

NCI-H1734 = system: NCI-H1734
Outline: as §1

ABC-1 = system: ABC-1
Outline: as §1

NCI-H2347 = system: NCI-H2347
Outline: as §1

RERF-LC-KJ = system: RERF-LC-KJ
Outline: as §1

201T = system: 201T
Outline: as §1

PC-14 = system: PC-14
Outline: as §1

NCI-H2405 = system: NCI-H2405
Outline: as §1

NCI-H1993 = system: NCI-H1993
Outline: as §1

NCI-H1563 = system: NCI-H1563
Outline: as §1

NCI-H647 = system: NCI-H647
Outline: as §1

LOU-NH91 = system: LOU-NH91
Outline: as §1

NCI-H1793 = system: NCI-H1793
Outline: as §1

COc1cc(N2CCC(C(N)=O)CC2)ccc1Nc1nc(N)c(Cl)c(Nc2ccccc2S(=O)(=O)C(C)C)n1 [HG-5-88-01] + CS(=O)(=O)CCNCc1ccc(-c2ccc3ncnc(Nc4ccc(OCc5cccc(F)c5)c(Cl)c4)c3c2)o1 [Lapatinib] (partner 2 µM)
relative viability (NCI-H2085; first compound 0.04 µM): 0.718
relative viability (NCI-H2085; first compound 0.1265 µM): 0.86
relative viability (NCI-H2085; first compound 0.4 µM): 0.761
relative viability (NCI-H2085; first compound 1.265 µM): 0.65
relative viability (NCI-H2085; first compound 4 µM): 0.557
relative viability (NCI-H2023; first compound 0.04 µM): 0.926
relative viability (NCI-H2023; first compound 0.1265 µM): 1.32
relative viability (NCI-H2023; first compound 0.4 µM): 0.573
relative viability (NCI-H2023; first compound 1.265 µM): 0.708
relative viability (NCI-H2023; first compound 4 µM): 0.335
relative viability (NCI-H3122; first compound 0.04 µM): 0.763
relative viability (NCI-H3122; first compound 0.1265 µM): 0.357
relative viability (NCI-H3122; first compound 0.4 µM): 0.281
relative viability (NCI-H3122; first compound 1.265 µM): 0.221
relative viability (NCI-H3122; first compound 4 µM): 0.2
relative viability (NCI-H520; first compound 0.04 µM): 0.825
relative viability (NCI-H520; first compound 0.1265 µM): 0.896
relative viability (NCI-H520; first compound 0.4 µM): 0.401
relative viability (NCI-H520; first compound 1.265 µM): 0.813
relative viability (NCI-H520; first compound 4 µM): 0.795
relative viability (EPLC-272H; first compound 0.04 µM): 0.871
relative viability (EPLC-272H; first compound 0.1265 µM): 0.952
relative viability (EPLC-272H; first compound 0.4 µM): 0.994
relative viability (EPLC-272H; first compound 1.265 µM): 0.949
relative viability (EPLC-272H; first compound 4 µM): 0.0809
relative viability (NCI-H1650; first compound 0.04 µM): 0.785
relative viability (NCI-H1650; first compound 0.1265 µM): 0.869
relative viability (NCI-H1650; first compound 0.4 µM): 0.928
relative viability (NCI-H1650; first compound 1.265 µM): 0.799
relative viability (NCI-H1650; first compound 4 µM): 0.29
relative viability (COR-L23; first compound 0.04 µM): 0.998
relative viability (COR-L23; first compound 0.1265 µM): 1.07
relative viability (COR-L23; first compound 0.4 µM): 0.957
relative viability (COR-L23; first compound 1.265 µM): 0.921
relative viability (COR-L23; first compound 4 µM): 0.629
relative viability (HCC-44; first compound 0.04 µM): 0.978
relative viability (HCC-44; first compound 0.1265 µM): 0.987
relative viability (HCC-44; first compound 0.4 µM): 0.845
relative viability (HCC-44; first compound 1.265 µM): 1.04
relative viability (HCC-44; first compound 4 µM): 0.669
relative viability (NCI-H2170; first compound 0.04 µM): 0.247
relative viability (NCI-H2170; first compound 0.1265 µM): 0.275
relative viability (NCI-H2170; first compound 0.4 µM): 0.251
relative viability (NCI-H2170; first compound 1.265 µM): 0.267
relative viability (NCI-H2170; first compound 4 µM): 0.251
relative viability (EKVX; first compound 0.04 µM): 0.212
relative viability (EKVX; first compound 0.1265 µM): 0.215
relative viability (EKVX; first compound 0.4 µM): 0.184
relative viability (EKVX; first compound 4 µM): 0.15
relative viability (NCI-H1734; first compound 0.04 µM): 1
relative viability (NCI-H1734; first compound 0.1265 µM): 1.08
relative viability (NCI-H1734; first compound 0.4 µM): 1.02
relative viability (NCI-H1734; first compound 1.265 µM): 0.982
relative viability (NCI-H1734; first compound 4 µM): 0.969
relative viability (ABC-1; first compound 0.04 µM): 1.2
relative viability (ABC-1; first compound 0.1265 µM): 1.12
relative viability (ABC-1; first compound 0.4 µM): 0.996
relative viability (ABC-1; first compound 1.265 µM): 0.624
relative viability (ABC-1; first compound 4 µM): 1.32
relative viability (NCI-H2347; first compound 0.04 µM): 1.02
relative viability (NCI-H2347; first compound 0.1265 µM): 0.947
relative viability (NCI-H2347; first compound 0.4 µM): 0.896
relative viability (NCI-H2347; first compound 1.265 µM): 1.01
relative viability (NCI-H2347; first compound 4 µM): 0.887
relative viability (RERF-LC-KJ; first compound 0.04 µM): 0.833
relative viability (RERF-LC-KJ; first compound 0.1265 µM): 0.774
relative viability (RERF-LC-KJ; first compound 0.4 µM): 0.826
relative viability (RERF-LC-KJ; first compound 1.265 µM): 0.876
relative viability (RERF-LC-KJ; first compound 4 µM): 0.839
relative viability (201T; first compound 0.04 µM): 1.03
relative viability (201T; first compound 0.1265 µM): 0.922
relative viability (201T; first compound 0.4 µM): 1.01
relative viability (201T; first compound 1.265 µM): 1.07
relative viability (201T; first compound 4 µM): 1.14
relative viability (PC-14; first compound 0.04 µM): 0.358
relative viability (PC-14; first compound 0.1265 µM): 0.307
relative viability (PC-14; first compound 0.4 µM): 0.242
relative viability (PC-14; first compound 1.265 µM): 0.267
relative viability (PC-14; first compound 4 µM): 0.25
relative viability (NCI-H2405; first compound 0.04 µM): 1.25
relative viability (NCI-H2405; first compound 0.1265 µM): 1.14
relative viability (NCI-H2405; first compound 0.4 µM): 0.992
relative viability (NCI-H2405; first compound 1.265 µM): 0.894
relative viability (NCI-H2405; first compound 4 µM): 0.865
relative viability (NCI-H1993; first compound 0.04 µM): 0.713
relative viability (NCI-H1993; first compound 0.1265 µM): 0.853
relative viability (NCI-H1993; first compound 0.4 µM): 0.843
relative viability (NCI-H1993; first compound 1.265 µM): 0.79
relative viability (NCI-H1993; first compound 4 µM): 0.788
relative viability (NCI-H1563; first compound 0.04 µM): 0.872
relative viability (NCI-H1563; first compound 0.1265 µM): 0.941
relative viability (NCI-H1563; first compound 0.4 µM): 1.03
relative viability (NCI-H1563; first compound 1.265 µM): 0.882
relative viability (NCI-H1563; first compound 4 µM): 1.24
relative viability (NCI-H647; first compound 0.04 µM): 0.929
relative viability (NCI-H647; first compound 0.1265 µM): 1.23
relative viability (NCI-H647; first compound 1.265 µM): 1.11
relative viability (NCI-H647; first compound 4 µM): 1.21
relative viability (LOU-NH91; first compound 0.04 µM): 0.743
relative viability (LOU-NH91; first compound 0.1265 µM): 0.673
relative viability (LOU-NH91; first compound 0.4 µM): 0.594
relative viability (LOU-NH91; first compound 1.265 µM): 0.592
relative viability (LOU-NH91; first compound 4 µM): 0.608
relative viability (NCI-H1793; first compound 0.1265 µM): 0.655
relative viability (NCI-H1793; first compound 0.4 µM): 0.607
relative viability (NCI-H1793; first compound 1.265 µM): 0.762
relative viability (NCI-H1793; first compound 4 µM): 0.77
